One experiment has as its target T1, p38 alpha (Homo sapiens, UniProt Q16539).
T1 construct: purchased Invitrogen PV3304
Put plainly: P38 alpha enzyme inhibition assay (Alphascreen kinase activity assay). Conditions: 100 pM p38 alpha, 2 hours preincubation at 25° C., 250 μM ATP, ATF-2 fusion protein; read-out: p38α inhibition. The class given is biochemical. The method in brief:
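Phosphorylation of ATF-2 fusion protein (0.3 μg/ml) read by AlphaScreen with anti-phospho-ATF2 antibody after 1 h kinase reaction at 25 °C, initiated by 250 μM ATP. Compounds first incubated 2 h at 25 °C with 100 pM p38 alpha in pH 7.5 HEPES buffer, 1% DMSO. IC50 derived from concentration-response data.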
(In general: Alpha assays give light when donor and acceptor beads are brought close together.)

The test system of experiment [1] is Peripheral Blood Mononuclear Cells (PBMCs), TNFα release. Kind of experiment: LPS-stimulated PBMC TNFα release assay. The class given is cell-based. Conditions: human PBMC, LPS (10 ng/ml), 18 h, compound 1 h before LPS; read-out: LPS-stimulated PBMC TNFα release inhibition. Put shortly: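 TNFα in cell-free supernatant, read on MSD plates, gave % inhibition curves and IC50 (≥3 separate experiments). Healthy-donor PBMCs had 1 h compound exposure at 37 °C in 1% FBS medium, then 18 h stimulation with 10 ng/ml LPS, after a 3 h serum-free rest.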

Experimental findings from patent US10364245B2 (CHIESI FARMACEUTICI S.p.A., priority 2017, dated 2019) are described below.

pIC50: −log10 of the molar value. Structures can show the parent of a compound that is named as a salt.

T1 sequence (Q16539 whole entry): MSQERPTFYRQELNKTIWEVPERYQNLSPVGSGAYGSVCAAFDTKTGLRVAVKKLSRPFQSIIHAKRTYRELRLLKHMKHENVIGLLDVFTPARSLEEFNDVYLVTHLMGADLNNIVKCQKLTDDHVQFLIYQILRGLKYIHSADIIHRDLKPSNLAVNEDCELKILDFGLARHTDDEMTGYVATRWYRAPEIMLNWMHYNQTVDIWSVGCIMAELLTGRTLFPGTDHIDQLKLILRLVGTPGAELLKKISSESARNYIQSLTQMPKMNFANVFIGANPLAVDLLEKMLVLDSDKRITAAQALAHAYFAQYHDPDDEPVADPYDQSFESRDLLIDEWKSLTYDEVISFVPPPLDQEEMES

For `COC(C)(C)c1nnc2ccc(O[C@@H]3CC[C@H](NC(=O)Nc4cc(C(C)(C)C)nc(C(=O)NCCN5CCOCC5)n4)c4ccccc43)cn12` [Example 95, 4-(tert-butyl)-6-(3-((1S,4R)-4-((3-(2-methoxypropan-2-yl)-[1,2,4]triazolo[4,3-a]pyridin-6-yl)oxy)-1,2,3,4-tetrahydronaphthalen-1-yl)ureido)-N-(2-morpholinoethyl)-pyrimidine-2-carboxamide], the values for the pIC50 (on p38 alpha; in experiment [1]) were 8.00 to 9.00 and less than 8.30, respectively.
For `COC(C)(C)c1nnc2ccc(O[C@@H]3CC[C@H](NC(=O)Nc4cc(C(C)(C)C)nc(C(=O)NCCN(C)C)n4)c4ccccc43)cn12` [Example 96, 4-(tert-butyl)-N-(2-(dunethylamino)ethyl)-6-(3-((1S,4R)-4-((3-(2-methoxypropan-2-yl)-[1,2,4]triazolo[4,3-a]pyridin-6-yl)oxy)-1,2,3,4-tetrahydronaphthalen-1-yl)ureido)pyrimidine-2-carboxamide], the pIC50 on p38 alpha is 8.00 to 9.00; in experiment [1], 8.30 to 9.00.
On to `COCC(C)(C)c1nnc2ccc(O[C@@H]3CC[C@H](NC(=O)Nc4cc(C(C)(C)C)nc(C(=O)NCCN5CCOCC5)n4)c4ccccc43)cn12` [Example 97, 4-(tert-butyl)-6-(3-((1S,4R)-4-((3-(1-methoxy-2-methylpropan-2-yl)-[1,2,4]triazolo[4,3-a]pyridin-6-yl)oxy)-1,2,3,4-tetrahydronaphthalen-1-yl)ureido)-N-(2-morpholinoethyl)-pyrimidine-2-carboxamide], for which the pIC50 was more than 9.00 on p38 alpha and less than 8.30 in experiment [1].
For the compound `CC(C)(C)Cc1nnc2ccc(O[C@@H]3CC[C@H](NC(=O)Nc4cc(C(C)(C)C)nc(C(=O)NCCN5CCOCC5)n4)c4ccccc43)cn12` [Example 99, 4-(tert-butyl)-N-(2-morpholinoethyl)-6-(3-((1S,4R)-4-((3-neopentyl-[1,2,4]triazolo[4,3-a]pyridin-6-yl)oxy)-1,2,3,4-tetrahydronaphthalen-1-yl)ureido)pyrimidine-2-carboxamide], the pIC50 at p38 alpha was 8.00 to 9.00; in experiment [1], less than 8.30.
As for `CC[C@H](C)c1nnc2ccc(O[C@@H]3CC[C@H](NC(=O)Nc4cc(C(C)(C)C)nc(C(=O)NCCN(C)C)n4)c4ccccc43)cn12` [Example 100, 4-(tert-butyl)-6-(3-((1S,4R)-4-((3-((S)-sec-butyl)-[1,2,4]triazolo[4,3-a]pyridin-6-yl)oxy)-1,2,3,4-tetrahydronaphthalen-1-yl)ureido)-N-(2-(dimethylamino)ethyl)-pyrimidine-2-carboxamide], the pIC50 at p38 alpha is more than 9.00; in experiment [1] it was 8.30 to 9.00.
For the compound `CC[C@H](C)c1nnc2ccc(O[C@@H]3CC[C@H](NC(=O)Nc4cc(C(C)(C)C)nc(C(=O)NCCN5CCOCC5)n4)c4ccccc43)cn12` [Example 102, 4-(tert-butyl)-6-(3-((1S,4R)-4-((3-((S)-sec-butyl)-[1,2,4]triazolo[4,3-a]pyridin-6-yl)oxy)-1,2,3,4-tetrahydronaphthalen-1-yl)ureido)-N-(2-morpholinoethyl)-pyrimidine-2-carboxamide], the pIC50 on p38 alpha was more than 9.00; in experiment [1] it was less than 8.30.
With `CC(C)(C)c1cc(NC(=O)N[C@H]2CC[C@@H](Oc3ccc4nnc(C(C)(C)C)n4c3)c3ccccc32)nc(CNC(=O)CCN2CCOCC2)n1` [Example 103, N-((4-(tert-butyl)-6-(3-((1S,4R)-4-((3-(tert-butyl)-[1,2,4]-triazolo[4,3-a]pyridin-6-yl)oxy)-1,2,3,4-tetrahydronaphthalen-1-yl)ureido)pyrimidin-2-yl)methyl)-3-morpholinopropanamide], the results for the pIC50 (at p38 alpha; in experiment [1]) were 8.00 to 9.00 and less than 8.30, respectively.
The matching figures for `COC1CN(CCNC(=O)c2nc(NC(=O)N[C@H]3CC[C@@H](Oc4ccc5nnc(C(C)(C)C)n5c4)c4ccccc43)cc(C(C)(C)C)n2)C1` [Example 104, 4-(tert-butyl)-6-(3-((1S,4R)-4-((3-(tert-butyl)-[1,2,4]triazolo[4,3-a]pyridin-6-yl)oxy)-1,2,3,4-tetrahydronaphthalen-1-yl)ureido)-N-(2-(3-methoxyazetidin-1-yl)ethyl)pyrimidine-2-carboxamide]: 8.00 to 9.00 and more than 9.00.
On to `CC[C@H](C)c1nnc2ccc(O[C@@H]3CC[C@H](NC(=O)Nc4cc(C(C)(C)C)nc(C(=O)NCCN(C)CCOC)n4)c4ccccc43)cn12` [Example 105, 4-(tert-butyl)-6-(3-((1S,4R)-4-((3-((S)-sec-butyl)-[1,2,4]triazolo[4,3-a]pyridin-6-yl)oxy)-1,2,3,4-tetrahydronaphthalen-1-yl)ureido)-N-(2-((2-methoxyethyl)(methyl)-amino)ethyl)pyrimidine-2-carboxamide], for which the pIC50 at p38 alpha is more than 9.00; in experiment [1], 8.30 to 9.00.
Consider `CN(CCNC(=O)c1nc(NC(=O)N[C@H]2CC[C@@H](Oc3ccc4nnc(C(C)(C)C)n4c3)c3ccccc32)cc(C(C)(C)C)n1)C1COC1` [Example 107, 4-(tert-butyl)-6-(3-((1S,4R)-4-((3-(tert-butyl)-[1,2,4]triazolo[4,3-a]pyridin-6-yl)oxy)-1,2,3,4-tetrahydronaphthalen-1-yl)ureido)-N-(2-(methyl(oxetan-3-yl)amino)ethyl)-pyrimidine-2-carboxamide], for which the figures for the pIC50 (on p38 alpha; in experiment [1]) were more than 9.00 and less than 8.30, respectively.
Consider `CC(C)(C)c1cc(NC(=O)N[C@H]2CC[C@@H](Oc3ccc4nnc(C(C)(C)C)n4c3)c3ccccc32)nc(C(=O)NCCN2CCC(O)CC2)n1` [Example 108, 4-(tert-butyl)-6-(3-((1S,4R)-4-((3-(tert-butyl)-[1,2,4]triazolo[4,3-a]pyridin-6-yl)oxy)-1,2,3,4-tetrahydronaphthalen-1-yl)ureido)-N-(2-(4-hydroxypiperidin-1-yl)ethyl)pyrimidine-2-carboxamide], for which the figures for the pIC50 (on p38 alpha; in experiment [1]) were more than 9.00 and less than 8.30, respectively.
As for `CC(C)(C)c1cc(NC(=O)N[C@H]2CC[C@@H](Oc3ccc4nnc(C5(C)CCC5)n4c3)c3ccccc32)nc(C(=O)NCCN2CCOCC2)n1` [Example 109, 4-(tert-butyl)-6-(3-((1S,4R)-4-((3-(1-methylcyclobutyl)-[1,2,4]triazolo[4,3-a]pyridin-6-yl)oxy)-1,2,3,4-tetrahydronaphthalen-1-yl)ureido)-N-(2-morpholinoethyl)-pyrimidine-2-carboxamide], the pIC50 on p38 alpha was more than 9.00; in experiment [1], less than 8.30.
For `CN1CCC[C@H]1C(=O)NCc1nc(NC(=O)N[C@H]2CC[C@@H](Oc3ccc4nnc(C(C)(C)C)n4c3)c3ccccc32)cc(C(C)(C)C)n1` [Example 110, (S)-N-((4-(tert-butyl)-6-(3-((1S,4R)-4-((3-(tert-butyl)-[1,2,4]triazolo[4,3-a]pyridin-6-yl)oxy)-1,2,3,4-tetrahydronaphthalen-1-yl)ureido)pyrimidin-2-yl)methyl)-1-methylpyrrolidine-2-carboxamide] the same measures were 8.00 to 9.00 and 8.30 to 9.00.
As for `CC(C)(C)c1cc(NC(=O)N[C@H]2CC[C@@H](Oc3ccc4nnc(C(C)(C)C)n4c3)c3ccccc32)nc(C(=O)NCCCN2CCCOCC2)n1` [Example 111, N-(3-(1,4-Oxazepan-4-yl)propyl)-4-(tert-butyl)-6-(3-((1S,4R)-4-((3-(tert-butyl)-[1,2,4]triazolo[4,3-a]pyridin-6-yl)oxy)-1,2,3,4-tetrahydronaphthalen-1-yl)ureido)pyrimidine-2-carboxamide partial formate salt], the pIC50 was more than 9.00 at p38 alpha and less than 8.30 in experiment [1].
For `CN(C)CC(C)(C)NC(=O)c1nc(NC(=O)N[C@H]2CC[C@@H](Oc3ccc4nnc(C(C)(C)C)n4c3)c3ccccc32)cc(C(C)(C)C)n1` [Example 112, 4-(tert-butyl)-6-(3-((1S,4R)-4-((3-(tert-butyl)-[1,2,4]triazolo[4,3-a]pyridin-6-yl)oxy)-1,2,3,4-tetrahydronaphthalen-1-yl)ureido)-N-(1-(dimethylamino)-2-methylpropan-2-yl)pyrimidine-2-carboxamide] the same measures were 8.00 to 9.00 and 8.30 to 9.00.
`CC(C)(C)c1cc(NC(=O)N[C@H]2CC[C@@H](Oc3ccc4nnc(C(C)(C)C)n4c3)c3ccccc32)nc(CN2CCNC(=O)C2)n1` [Example 113, 1-(6-(tert-Butyl)-2-((3-oxopiperazin-1-yl)methyl)pyrimidin-4-yl)-3-((1S,4R)-4-((3-(tert-butyl)-[1,2,4]-triazolo[4,3-a]pyridin-6-yl)oxy)-1,2,3,4-tetrahydronaphthalen-1-yl)urea partial formate salt]: the pIC50 is 8.00 to 9.00 on p38 alpha and less than 8.30 in experiment [1].
On to `CCN(C)CCNC(=O)c1nc(NC(=O)N[C@H]2CC[C@@H](Oc3ccc4nnc(C(C)(C)C)n4c3)c3ccccc32)cc(C(C)(C)C)n1` [Example 114, 4-(tert-butyl)-6-(3-((1S,4R)-4-((3-(tert-butyl)-[1,2,4]triazolo[4,3-a]pyridin-6-yl)oxy)-1,2,3,4-tetrahydronaphthalen-1-yl)ureido)-N-(2-(ethyl(methyl)amino)-ethyl)pyrimidine-2-carboxamide], for which the pIC50 (on p38 alpha; in experiment [1]) was more than 9.00 each time.
Regarding `CN(C)C(C)(C)CNC(=O)c1nc(NC(=O)N[C@H]2CC[C@@H](Oc3ccc4nnc(C(C)(C)C)n4c3)c3ccccc32)cc(C(C)(C)C)n1` [Example 117, 4-(tert-butyl)-6-(3-((1S,4R)-4-((3-(tert-butyl)-[1,2,4]triazolo[4,3-a]pyridin-6-yl)oxy)-1,2,3,4-tetrahydronaphthalen-1-yl)ureido)-N-(2-(dimethylamino)-2-methylpropyl)pyrimidine-2-carboxamide], the pIC50 (on p38 alpha; in experiment [1]) was more than 9.00 each time.
